Earlier results, collected in US20020160936A1, “HCV E2 PROTEIN BINDING AGENTS FOR TREATMENT OF HEPATITIS C VIRUS INFECTION” (priority 1999, published 2002).

Tested on: hepatitis C virus
Conditions: subjects with chronic hepatitis C

In the case of interferon-alpha, the long-term cure rate is listed as “less than 10%”.
